PubChem BioAssay (NCI)
Several values for one entry are separate records, joined by “and”; a condition that tells them apart may be missing. Equal entries are not always repeated.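 Following 48 hours of exposure in 96-well plates, responses at five concentrations were used to interpolate endpoints linearly. GI50 = concentration required for 50% inhibition of growth. TGI: total growth inhibition.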

Assays:
Assay in all cases: NCI-60 cell line screen, 48 h
[1] = tested on: HT29 colon
[2] = tested on: MOLT-4 leukemia
[3] = tested on: SK-MEL-5 melanoma
[4] = tested on: HOP-92 NSCLC
[5] = tested on: 786-0 renal
[6] = tested on: K-562 leukemia
[7] = tested on: SK-MEL-2 melanoma
[8] = tested on: SF-539 CNS
[9] = tested on: CCRF-CEM leukemia

Compound	TGI [1]	TGI [2]	TGI [3]	TGI [4]	TGI [5]	TGI [6]	TGI [7]	TGI [8]	TGI [9]	GI50 [1]	GI50 [2]	GI50 [3]	GI50 [8]	GI50 [9]	GI50 [4]	GI50 [6]	GI50 [7]
CC(=O)OC1C(COC(=O)c2ccccc2)OC(Nc2ncc(-c3ccc(Br)cc3)s2)C(OC(=O)c2ccccc2)C1OC(=O)c1ccccc1 (centres undefined)	> 100 µM	> 100 µM	> 100 µM	> 100 µM	> 100 µM	> 100 µM	35.3 µM										
O=c1cc(-c2cc(O)c(O)c(-c3c(O)cc4oc(-c5ccc(O)c(O)c5)cc(=O)c4c3O)c2)oc2cc(O)cc(O)c12	> 25 µM	> 25 µM	> 25 µM	> 25 µM		> 25 µM	> 25 µM	> 25 µM	> 25 µM								
CO[C@@H]1O[C@H](C(=O)c2ccccc2)[C@H]2OC(C)(C)O[C@@H]12		> 100 µM	> 100 µM	> 100 µM	> 100 µM	> 100 µM	> 100 µM	> 100 µM	> 100 µM								
COc1ccc(-c2cc(-c3ccccc3)[nH]c(=S)c2C#N)cc1	> 100 µM	> 100 µM	34.3 µM	98.3 µM	86.3 µM	> 100 µM			> 100 µM								
O=c1[nH]nc(Cc2ccccc2)n1/N=C/c1ccncc1	> 100 µM	> 100 µM	> 100 µM	> 100 µM	> 100 µM	> 100 µM		> 100 µM	> 100 µM								
CO[C@]12C[C@H](CNC(=O)c3ccc[nH]3)O[C@H]1NC(=O)N2	> 100 µM		> 100 µM	> 100 µM	> 100 µM	> 100 µM	> 100 µM	> 100 µM	> 100 µM								
CCCCn1c(-c2ccc([N+](=O)[O-])cc2)cs/c1=N/N=C1\C(=O)Nc2ccc(Br)cc21	33.1 µM	46.5 µM	27.8 µM	73.3 µM	29.8 µM	73.1 µM		28 µM	> 100 µM								
COC(=O)/C(C#N)=C(/NCCN)Nc1ccccc1	> 100 µM	> 100 µM	> 100 µM	> 100 µM	> 100 µM	> 100 µM	> 100 µM	> 100 µM									
CC(=O)OCc1c(O)c2c(c(O)c1COC(C)=O)C(=O)C=CC2=O	31.6 µM	15.1 µM	28.5 µM	7.24 µM		> 100 µM	8.84 µM	35.7 µM	13.7 µM								
N#Cc1c(-c2ccccc2)cc(-c2ccc(Cl)cc2)[nH]c1=S	> 100 µM	> 100 µM	39 µM	> 100 µM	> 100 µM	> 100 µM			86 µM								
CCCCCCCCCc1nn2c(Cc3ccccc3)nnc2s1		59.3 µM	30.1 µM		34.7 µM	> 100 µM	39.3 µM	33.4 µM									
O=C1CSC2=NC3=C(COC/C3=C\c3ccc(Br)cc3)C(c3ccc(Br)cc3)N12 (centres undefined)		64.2 µM	> 100 µM	> 100 µM	> 100 µM	> 100 µM	> 100 µM	> 100 µM	61.9 µM								
CSc1n[nH]c(N)c1C(=O)Nc1ccccc1	> 100 µM	> 100 µM	> 100 µM		> 100 µM	> 100 µM	> 100 µM	> 100 µM	> 100 µM								
CCOP(=O)(/C=C\n1ccc(N)nc1=O)OCC	> 100 µM	> 100 µM	> 100 µM		> 100 µM	> 100 µM	> 100 µM	> 100 µM	> 100 µM								
CN(C)CCNC(=O)c1cccc2nc(-c3ccccc3)oc12	> 100 µM	> 89.5 µM	59.6 µM	59.4 µM		> 100 µM	> 100 µM	> 100 µM	> 100 µM								
COc1ccc(CN2C3CC2CN(c2ccc(-c4cc(OCC(C)(C)O)cn5ncc(C#N)c45)cn2)C3)cn1	> 100 µM	> 100 µM	> 100 µM	7.35 µM		> 100 µM	> 100 µM	8.61 µM	> 100 µM	8.09 µM	52.9 µM	> 100 µM	2.61 µM	3.59 µM	2.12 µM	> 100 µM	> 100 µM
COc1nc(C#CC(C)(C)C)nc(OC)n1	> 100 µM	> 100 µM	39 µM		> 100 µM	> 100 µM	> 100 µM	83.1 µM									
CCOC(=O)C1CCC(=O)N1C(=O)c1ccccc1 (centres undefined)	> 100 µM	> 100 µM	> 100 µM	> 100 µM	> 100 µM	> 100 µM		> 100 µM	> 100 µM								
CCON1CC(C(=O)OC)=C(O)C1=O	> 100 µM	> 100 µM	> 100 µM	> 100 µM	> 100 µM	> 100 µM	> 100 µM										

Compound	TGI [1]	TGI [2]	TGI [3]	TGI [4]	TGI [5]	TGI [6]	TGI [7]	TGI [8]	TGI [9]	GI50 [1]	GI50 [2]	GI50 [3]	GI50 [8]	GI50 [9]	GI50 [4]	GI50 [6]	GI50 [7]
CC(=O)OC1CCC2C3CCc4c(C)ccc(OS(=O)(=O)c5ccccc5)c4C3CCC12C (centres undefined)	> 100 µM	> 100 µM	23.1 µM	37.9 µM	36.9 µM	> 100 µM	> 100 µM		> 100 µM								
C1=C\SS/C=C\SS/1	35.6 µM	78.7 µM	> 100 µM	97.3 µM	35.8 µM	85.2 µM	> 100 µM		7.09 µM								
CCOC(=O)c1nnsc1NN	> 100 µM	> 100 µM	> 100 µM	> 100 µM	> 100 µM		> 100 µM	> 100 µM	> 100 µM								
CCOC(=O)c1nc2cc(C(F)(F)F)ccc2nc1Nc1ccc(C(=O)NC(C(=O)OCC)C(=O)OCC)cc1	> 100 µM	> 100 µM	54.2 µM	58.8 µM	27.6 µM	> 100 µM	> 100 µM		> 100 µM								
CCCSc1nc(-c2ccc(OC)cc2)c(C#N)c(=O)n1C1OC(COC(C)=O)C(OC(C)=O)C(OC(C)=O)C1OC(C)=O (centres undefined)	> 100 µM	> 100 µM		> 100 µM and 93.7 µM		> 100 µM	> 100 µM	> 100 µM	> 100 µM						> 100 µM and 28.2 µM		
C[C@H]1SC(c2ccc(Cl)cc2Cl)N(NC(=O)c2ccncc2)C1=O (some centres undefined)	> 100 µM		37 µM	> 100 µM		> 100 µM	58.3 µM		> 100 µM								
COc1ccc(C2c3cc4c(cc3OC(N3CCOCC3)C2C)OCO4)c(OC)c1OC (centres undefined)	52.2 µM	34 µM	23.1 µM		43.2 µM	21 µM	36.2 µM	27.7 µM	55.4 µM								
CCC(C(=O)C(=O)OC)P1(=O)OC(C)(C)CN1C(C)(C)C (centres undefined)	> 100 µM	> 100 µM	> 100 µM		> 100 µM	> 100 µM	> 100 µM	> 100 µM									
COc1ccc(COCC[C@H](C)OC2OC(CO[Si](C)(C)C(C)(C)C)C(OC(=O)CCCN=[N+]=[N-])C(OC(=O)CCCN=[N+]=[N-])C2OC(=O)CCCN=[N+]=[N-])cc1 (some centres undefined)	62.7 µM		25.4 µM	> 100 µM	> 100 µM		> 100 µM	> 100 µM	> 100 µM								
COC(=O)C1=Nc2c(C)nn(-c3ccccc3)c2N=C(c2ccccc2)C1	> 10 µM	> 10 µM	> 10 µM	> 10 µM	> 10 µM	> 10 µM		> 10 µM									
CC12CCCC3(CC(=O)C(C)(C)C3C(=O)C1)C2 (centres undefined)	> 100 µM	> 100 µM	> 100 µM	> 100 µM	> 100 µM	> 100 µM	> 100 µM		> 100 µM								
OCc1ccc2c(c1)CC1(Cc3ccc(/C=N/O)cc3C1)C2 (centres undefined)	11.4 µM	> 40.4 µM	8.25 µM	59.5 µM	> 100 µM		42.3 µM	11.3 µM	> 100 µM								
O=c1[nH]c(=O)n(C2CC(O)C(CO)O2)cc1OCc1ccccc1 (centres undefined)	> 100 µM	> 100 µM	> 100 µM		> 100 µM	> 100 µM			> 100 µM								
CN(C)CCC(=O)/C=C\c1ccccc1	39.2 µM	33.1 µM	31.8 µM	32.9 µM	29.8 µM	36.8 µM		30.7 µM	25 µM								
O=C(N/N=C/c1ccc(Br)cc1)N/N=C/c1ccc(Br)cc1	26 µM	30.2 µM	31.6 µM		13.4 µM	> 100 µM	> 100 µM		31 µM								
Cc1ccc(C2=CC(=O)/C(=C\C(=O)c3ccc(Cl)cc3)O2)cc1	15.1 µM	> 100 µM	33.2 µM	33.3 µM	21.6 µM	41.7 µM		55.1 µM	> 100 µM								
O=c1cc(-c2ccccc2)oc2c(-c3cc(Cl)cc4c(=O)cc(-c5ccccc5)oc34)cc(Cl)cc12	> 100 µM	52.1 µM	32.8 µM		> 100 µM	> 100 µM	> 100 µM	44.4 µM	54.6 µM								
C=C1c2nc3ccccc3n2C=C(c2ccc(Cl)cc2)N1c1ccc(OC)cc1		> 100 µM	46.2 µM	43.6 µM	20.7 µM	> 100 µM	66.5 µM	19.2 µM	> 100 µM								
